Data on 31 molecules can be found in patent publication US9290490B2 (Merck Sharp & Dohme Corp., priority 2011, dated 2016).

Where two headings read alike, the source gives them in different places.

Data set [1] has as its target recombinant human GST-Syk (Homo sapiens (Human), UniProt P43405). Briefly: Homogeneous Time-Resolved Fluorescence (HTRF) Assay for the Recombinant Human Syk Enzyme. The data set is classed as biochemical. As to conditions: recombinant human GST-Syk 5 pM, ATP 25 μM. The protocol: Homogeneous Time-Resolved Fluorescence (HTRF) Assay for the Recombinant Human Syk Enzyme:
A recombinant GST-hSyk fusion protein was used to measure potency of compounds to inhibit human Syk activity. The recombinant human GST-Syk (Carna Biosciences #08-176) (5 pM final concentration) was incubated with various concentrations of the inhibitor diluted in DMSO (0.1% final concentration) for 10 minutes at room temperature in 15 mM Tris-HCl (pH 7.5), 0.01% tween 20, 2 mM DTT in 384 well plate format. To initiate the reaction the biotinylated substrate peptide (250 nM final concentration) that contains the phosphorylation site for Syk was added with magnesium (5 mM final concentration) and ATP (25 μM final concentration). Final volume of the reaction was 10 μL. Phosphorylation of the peptide was allowed to proceed for 45′ at room temperature. To quench the reaction and detect the phosphorylated product, 2 nM of a Europium-anti-phosphotyrosine antibody (Perkin Elmer #AD0161) and 70 nM SA-APC (Perkin-Elmer #CR130-100) were added together in 15 mM Tris pH 7.5, 40 mM EDTA, 0.01% Tween 20. Final volume of the quenching solution was 10 μL. The resulting HTRF signal was measured after 30 minutes on a EnVision (Perkin-Elmer) reader using a time-resolved fluorescence protocol. […] IC50 values are also provided for the following representative compounds: […]

For data set [2] the following is noted: allergic rhinitis, phase II; cited from earlier work.
The subject of a further data set is PGD2. Particulars: intranasal, allergic rhinitis, phase I/II; cited from earlier work.
Where [3] appears, read: 10-dose titration, read-out: rhSyk.
The mark [4] stands for this setting: read-out: rhSyk Activity (IC50).

In the case of `CCCCC(=O)OC1CCC(C(C)(O)c2ncc(-c3cc(C)cc(Nc4nccc(C(F)(F)F)n4)c3)s2)CC1` (stereo not shown) [Example 2-3], the IC50 is 1.26 µM in data set [1] (setting [3]) and 1 to 10 µM in data set [1] (setting [4]).
On the same counts, the results for `CCC(=O)O[C@@H]1CCC(C(C)(O)c2ncc(-c3cc(C)cc(Nc4nccc(C)n4)c3)s2)C[C@H]1C` (stereo partly shown) [Example 2-16] are 0.093 µM and no more than 0.1 µM.
The matching figures for `Cc1cc(Nc2nccc(C)n2)cc(-c2cnc(C(C)(O)C3CCC(C(=O)O)CC3)s2)c1` (stereo not shown) [Example 2-53]: 0.013 µM and no more than 0.1 µM.
Regarding `Cc1cc(Nc2nccc(C)n2)cc(-c2cnc(C(C)(O)C3CCC(NOC(=O)Cc4ccccc4)CC3)s2)c1` (stereo not shown) [Example 2-57], the IC50 in data set [1] (setting [3]) was 0.123 µM; in data set [1] (setting [4]), 0.1 to 1 µM.
Regarding `Cc1cc(Nc2ncc(Cl)c(C)n2)cc(-c2cnc(C(C)(O)C3CCC(C(=O)O)CC3)s2)c1` (stereo not shown) [Example 2-60], the IC50 is 0.005 µM in data set [1] (setting [3]) and no more than 0.1 µM in data set [1] (setting [4]).
Consider `CCCCC(=O)OC1CCC(C(C)(O)c2ncc(-c3cc(C)cc(Nc4ncc(F)c(OC)n4)c3)s2)CC1` (stereo not shown) [Example 2-73], for which the IC50 is 1.46 µM in data set [1] (setting [3]) and 1 to 10 µM in data set [1] (setting [4]).
The matching figures for `Cc1cc(Nc2nccc(C)n2)cc(-c2cnc(C(O)(C3CCC(C(=O)O)CC3)C(F)(F)F)s2)c1` (stereo not shown) [Example 2-101]: 0.002 µM and no more than 0.1 µM.
On the same counts, the results for `Cc1cc(Nc2ncc(F)c(C)n2)cc(-c2cnc(C(O)(CO)C3CCC(C(=O)O)CC3)s2)c1` (stereo not shown) [Example 2-109] are 0.015 µM and no more than 0.1 µM.
Take `COC(C)(c1ncc(-c2cc(C)cc(Nc3nccc(C(F)(F)F)n3)c2)s1)[C@H]1CC[C@H](C(=O)O)CC1` (stereo partly shown) [Example 2-110]: the figures for the IC50 in data set [1] (setting [3]) and in data set [1] (setting [4]) were 0.001 µM and no more than 0.1 µM, respectively.
The matching figures for `Cc1cc(Nc2nccc(C(F)(F)F)n2)cc(-c2cnc(C(N)[C@H]3CC[C@H](C(=O)O)CC3)s2)c1` (stereo partly shown) [Example 2-112]: 0.003 µM and no more than 0.1 µM.
`Cc1cc(Nc2nccc(C(F)(F)F)n2)cc(-c2cnc(C(C)(O)C3CCC(C(=O)O)C3)s2)c1` (stereo not shown) [Example 3-1]: the IC50 in data set [1] (setting [4]) is no more than 0.1 µM.
Take `Cc1cc(Nc2nccc(C(F)(F)F)n2)cc(-c2cnc(C(C)(O)C3CCC(C(=O)O)C3)s2)c1` (stereo not shown) [Example 3-2]: the IC50 was 0.002 µM in data set [1] (setting [3]) and no more than 0.1 µM in data set [1] (setting [4]).
For the molecule `Cc1cc(Nc2nccc(C(F)(F)F)n2)cc(-c2cnc(C(C)(O)C3CCC(C(=O)O)C3)s2)c1` (stereo not shown) [Example 3-3], in data set [1] (setting [4]), the IC50 was no more than 0.1 µM.
For `Cc1cc(Nc2nccc(C(F)(F)F)n2)cc(-c2cnc(C(C)(O)C3CCC(C(=O)O)C3)s2)c1` (stereo not shown) [Example 3-4], the IC50 in data set [1] (setting [4]) is no more than 0.1 µM.
With `Cc1cc(Nc2nccc(C(F)(F)F)n2)cc(-c2cnc(C(C)(O)C3CCC(C)(C(=O)O)CC3)s2)c1` (stereo not shown) [Example 3-5], in data set [1] (setting [4]), the IC50 is no more than 0.1 µM.
On the same count and under the same terms, in the case of `Cc1cc(Nc2nccc(C(F)(F)F)n2)cc(-c2cnc(C(C)(O)C3CCC(C)(C(=O)O)CC3)s2)c1` (stereo not shown) [Example 3-6] it was no more than 0.1 µM; in that of `Cc1cc(Nc2nccc(C(F)(F)F)n2)cc(-c2cnc(C(C)(O)C3CCC(C)(C(=O)O)CC3)s2)c1` (stereo not shown) [Example 3-7], no more than 0.1 µM.
As to `Cc1cc(Nc2nccc(C(F)(F)F)n2)cc(-c2cnc(C(F)C3CCC(C(=O)O)CC3)s2)c1` (stereo not shown) [Example 4-6], the IC50 was 0.002 µM in data set [1] (setting [3]) and no more than 0.1 µM in data set [1] (setting [4]).
As for `Cc1cc(Nc2nccc(C)n2)cc(-c2cnc(C[C@]3(O)CC[C@@H](C(=O)O)CC3)s2)c1` [Example 5 (cis isomer), cis-4-hydroxy-4-[(5-{3-methyl-5-[(4-methylpyrimidin-2-yl)amino]phenyl}-1,3-thiazol-2-yl)methyl]cyclohexanecarboxylic acid], in data set [1] (setting [4]), the IC50 was no more than 0.1 µM.
Same read-out and setting: in the case of `Cc1cc(Nc2nccc(C(F)(F)F)n2)cc(-c2cnc(C(O)[C@H]3CC[C@@H](C(N)=O)CC3)s2)c1` [Example 7 (cis isomer), cis-4-{hydroxy[5-(3-methyl-5-{[4-(trifluoromethyl)pyrimidin-2-yl]amino}phenyl)-1,3-thiazol-2-yl]methyl}cyclohexanecarboxamide] it was no more than 0.1 µM.
Take `Cc1cc(Nc2nccc(C(F)(F)F)n2)cc(-c2cnc(C(O)[C@H]3CC[C@H](C(N)=O)CC3)s2)c1` [Example 7 (trans isomer), trans-4-{hydroxy[5-(3-methyl-5-{[4-(trifluoromethyl)pyrimidin-2-yl]amino}phenyl)-1,3-thiazol-2-yl]methyl}cyclohexanecarboxamide]: the figures for the IC50 in data set [1] (setting [3]) and in data set [1] (setting [4]) were 0.035 µM and no more than 0.1 µM, respectively.
`Cc1cc(Nc2nccc(C(F)F)n2)cc(-c2cnc(C(C)(O)[C@H]3CC[C@H](C(=O)O)CC3)s2)c1Br` (stereo partly shown) [Example 8-1]: the IC50 in data set [1] (setting [4]) was no more than 0.1 µM.
Still for that read-out and setting: in the case of `Cc1cc(Nc2nccc(C(F)(F)F)n2)cc(-c2cnc(C(O)(CF)[C@H]3CC[C@H](C(=O)O)CC3)s2)c1` (stereo partly drawn) [Example 9, trans-4-{2-fluoro-1-hydroxy-1-[5-(3-methyl-5-{[4-(trifluoromethyl)pyrimidin-2-yl]amino}phenyl)-1,3-thiazol-2-yl]ethyl}cyclohexanecarboxylic acid] it was no more than 0.1 µM.
As for `Cc1cc(Nc2nccc(C(F)(F)F)n2)cc(-c2cnc([C@@](O)(CF)[C@H]3CC[C@H](C(=O)O)CC3)s2)c1` [Example 10], the IC50 in data set [1] (setting [4]) was no more than 0.1 µM.
On the same count and under the same terms, in the case of `Cc1cc(Nc2nccc(C(F)(F)F)n2)cc(-c2cnc(C(O)C3CCC(O)CC3(C)C)s2)c1` (stereo not shown) [Example 12, 4-{hydroxy[5-(3-methyl-5-{[4-(trifluoromethyl)pyrimidin-2-yl]amino}phenyl)-1,3-thiazol-2-yl]methyl}-3,3-dimethylcyclohexanol] it was no more than 0.1 µM.
On to `CCOC(=O)C1CCC(Cc2ncc(-c3cc(C)cc(Nc4nccc(C)n4)c3)s2)CC1` (stereo not shown) [Example 13, step 2, ethyl 4-[(5-{3-methyl-5-[(4-methylpyrimidin-2-yl)amino]phenyl}-1,3-thiazol-2-yl)methyl]cyclohexanecarboxylate], for which the IC50 was 0.301 µM in data set [1] (setting [3]) and 0.1 to 1 µM in data set [1] (setting [4]).
For the molecule `COC(=O)[C@@H]1CC(C(=O)c2ncc(-c3cc(C)cc(Nc4nccc(C(F)(F)F)n4)c3)s2)[C@H](O)C1(C)C` (stereo partly drawn) [Example 14, methyl (1,3-cis, 1,4-trans)-3-hydroxy-2,2-dimethyl-4-{[5-(3-methyl-5-{[4-(trifluoromethyl)-pyrimidin-2-yl]amino}phenyl)-1,3-thiazol-2-yl]carbonyl}cyclopentanecarboxylate], the figures for the IC50 in data set [1] (setting [3]) and in data set [1] (setting [4]) were 0.85 µM and 0.1 to 1 µM, respectively.
As for `Cc1cc(Nc2nccc(C(F)(F)F)n2)cc(-c2cnc(C(O)C3CCC4(CC3)OCCO4)s2)c1` (stereo not shown) [Example 22, 1,4-dioxaspiro[4.5]dec-8-yl[5-(3-methyl-5-{[4-(trifluoromethyl)pyrimidin-2-yl]amino}phenyl)-1,3-thiazol-2-yl]methanol], the IC50 in data set [1] (setting [3]) was 0.197 µM; in data set [1] (setting [4]) it was 0.1 to 1 µM.
Turning to `Cc1cc(Nc2nccc(C(F)(F)F)n2)cc(-c2cnc(C(C)(O)C3CCC(C)(O)CC3)s2)c1` (stereo not shown) [Example 23, 4-{1-hydroxy-1-[5-(3-methyl-5-{[4-(trifluoromethyl)pyrimidin-2-yl]amino}phenyl)-1,3-thiazol-2-yl]ethyl}-1-methylcyclohexanol], the IC50 in data set [1] (setting [4]) is no more than 0.1 µM.
Turning to `Oc1cccc(Nc2ncc(F)c(Nc3cccc(O)c3)n2)c1` [Example R112], in data set [2], the efficacy versus placebo entry is listed as “lack of efficacy”. In the data set with PGD2, the “decrease in PGD2” value was “statistically significant decrease” and the “safety across a range of indicators” value was “safe”.
For the molecule `Cc1cc(Nc2nccc(C(F)(F)F)n2)cc(-c2cncs2)c1` [Intermediate 21, N-[3-methyl-5-(1,3-thiazol-5-yl)phenyl]-4-(trifluoromethyl)pyrimidin-2-amine], the IC50 in data set [1] (setting [4]) is no more than 0.1 µM.
